Measurements published in paper PMC4000213 (PLoS ONE, 2014).
Several values for one entry are separate records, joined by “and”; a condition that tells them apart may be missing. Equal entries are not always repeated. Entries after “also recorded” stand apart in the source; their conditions may differ. Where two headings read alike, the source gives them in different places.

What was measured:
BoNT/A / LcA = settings: cited from earlier work
LcA (BoNT/A light chain) [1] = biological target: T1, LcA (BoNT/A light chain) (Clostridium botulinum, UniProt P0DPI0); format: biochemical
T1 sequence (P0DPI0 1-448 limits assumed): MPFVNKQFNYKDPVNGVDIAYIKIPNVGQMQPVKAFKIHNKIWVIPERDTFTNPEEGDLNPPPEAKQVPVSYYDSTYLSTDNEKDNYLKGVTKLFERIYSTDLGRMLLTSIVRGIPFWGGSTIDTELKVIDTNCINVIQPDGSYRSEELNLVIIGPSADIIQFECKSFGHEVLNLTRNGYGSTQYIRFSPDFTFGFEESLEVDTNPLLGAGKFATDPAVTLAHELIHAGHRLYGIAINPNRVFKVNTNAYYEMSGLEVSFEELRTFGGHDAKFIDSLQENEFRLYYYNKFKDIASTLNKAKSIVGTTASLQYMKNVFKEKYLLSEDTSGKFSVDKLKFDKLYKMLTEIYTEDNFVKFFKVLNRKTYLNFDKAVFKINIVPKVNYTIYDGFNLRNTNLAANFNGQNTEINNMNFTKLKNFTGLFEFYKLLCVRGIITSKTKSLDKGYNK

LcA (BoNT/A light chain) [2] = biological target: T1, LcA (BoNT/A light chain); format: biochemical; remark: listed apart in the source
LcA (BoNT/A light chain) [3] = biological target: T1, LcA (BoNT/A light chain); settings: cited from earlier work
LcA (BoNT/A light chain) [4] = biological target: T1, LcA (BoNT/A light chain); format: biochemical; settings: pH 7.4
LcA (BoNT/A light chain) [5] = biological target: T1, LcA (BoNT/A light chain); settings: cited from earlier work; remark: listed apart in the source
LcA (BoNT/A light chain) [6] = biological target: T1, LcA (BoNT/A light chain)
LcA (BoNT/A light chain) [7] = biological target: T1, LcA (BoNT/A light chain); remark: listed apart in the source
LcA (BoNT/A light chain) [8] = biological target: T1, LcA (BoNT/A light chain); remark: listed apart in the source

**Q.** What does the source list for `O[C@@H](CS)[C@@H](O)CS` (racemic) [DTT, dithiothreitol]?
**A.** effect of DTT on solubilized LcA activity (BoNT/A / LcA): inhibited; effect on the LcA reaction depending on concentration (BoNT/A / LcA): both stimulating and inhibitory; behavior of the new LcA preparation on adding BSA, ZnCl2 and DTT (LcA (BoNT/A light chain) [1]): essentially same behavior; effect of adding DTT and ZnCl2 to the 17-mer substrate reactions (LcA (BoNT/A light chain) [1]): results identical to those without them; concentration for optimal LcA activity (LcA (BoNT/A light chain) [2]): 4 mM; effect of DTT on LcA activity, SNAP25 substrate (LcA (BoNT/A light chain) [2]; pH 7.4): slight stimulation of LcA activity; effect on kinetic constants or specific activity of LcA with the 17-mer substrate (LcA (BoNT/A light chain) [3]): no effect

**Q.** Which “effect on BoNT / LcA activity” value (BoNT/A / LcA) does the source give for `O=C(O)CN(CCN(CC(=O)O)CC(=O)O)CC(=O)O` [EDTA, ethylenediaminetetraacetate] here?
**A.** inhibitor of LcA activity

**Q.** What about the “effect on BoNT activities” value (BoNT/A / LcA) of the same compound?
**A.** inhibits BoNT activities

**Q.** And the “effect on BoNT/A activity” value (BoNT/A / LcA)?
**A.** inhibitory

**Q.** For `[Cl-].[Na+]` [NaCl, Sodium chloride], which “effect on BoNT activities” value (BoNT/A / LcA) is on record?
**A.** inhibits BoNT activities

**Q.** And the “effect on BoNT/A activity” value (BoNT/A / LcA)?
**A.** inhibitory

**Q.** And the “effect of NaCl on LcA activity, 66-mer substrate” value (LcA (BoNT/A light chain) [4])?
**A.** stimulating effect; also recorded: The same was also observed when the 66-mer peptide was used as a substrate

**Q.** And the “effect of NaCl on LcA activity, 17-mer substrate” value (LcA (BoNT/A light chain) [1]; pH 7.4)?
**A.** inhibitory effect

**Q.** What about the “effect of higher NaCl concentrations on LcA activity, full length SNAP25 substrate” value (LcA (BoNT/A light chain) [2]) of the same compound?
**A.** decrease in LcA activity

**Q.** What about the “effect of NaCl on LcA activity, full length SNAP25 substrate” value (LcA (BoNT/A light chain) [2]; pH 7.4) of the same compound?
**A.** stimulating effect; also recorded: more than sevenfold

**Q.** What does the source list for `Cl.NC(CO)(CO)CO` [tris.HCl]?
**A.** effect on BoNT / LcA activity (BoNT/A / LcA): inhibitory; effect on BoNT/A activity (BoNT/A / LcA): inhibitory

**Q.** With `[Zn]` [zinc] as the compound, how does the “effect on the LcA reaction depending on concentration” value (BoNT/A / LcA) read?
**A.** both stimulating and inhibitory

**Q.** For (FITC)-ATDRIDQANQRATK(DABCYL)nL-amide, which Km (LcA (BoNT/A light chain) [5]) is on record?
**A.** 19 µM

**Q.** For SNKTRIDEANQ-RATKML [17-mer], which Km (LcA (BoNT/A light chain) [5]) is on record?
**A.** 1000 µM

**Q.** What about the Km (LcA (BoNT/A light chain) [6]) of the same compound?
**A.** 1500 µM

**Q.** And the Vmax (LcA (BoNT/A light chain) [6])?
**A.** 33.6 mM/min/mg

**Q.** And the kcat (LcA (BoNT/A light chain) [6])?
**A.** 28 s⁻¹

**Q.** And the Km (LcA (BoNT/A light chain) [6]; pH 7.4)?
**A.** 1510 µM

**Q.** What about the kcat (LcA (BoNT/A light chain) [6]; pH 7.4) of the same compound?
**A.** 28 s⁻¹ and 28 ± 3.5 s⁻¹

**Q.** And the kcat/Km (LcA (BoNT/A light chain) [6]; pH 7.4)?
**A.** 0.019 µM/s

**Q.** What about the substrate conversion (LcA (BoNT/A light chain) [7]) of the same compound?
**A.** 60–65%

**Q.** And the “substrate converted into products” value (LcA (BoNT/A light chain) [7])?
**A.** 40%

**Q.** What about the “quality as LcA substrate (Km, kcat, kcat/Km)” value (LcA (BoNT/A light chain) [8]) of the same compound?
**A.** poorest of all the three substrates

**Q.** With SNRTRIDEAN[dnpK]RA[daciaC]RML as the compound, how does the Km (LcA (BoNT/A light chain) [5]) read?
**A.** 10 µM

**Q.** What about the kcat (LcA (BoNT/A light chain) [5]) of the same compound?
**A.** 7 s⁻¹

**Q.** Which results are given for zinc chloride [ZnCl2]?
**A.** behavior of the new LcA preparation on adding BSA, ZnCl2 and DTT (LcA (BoNT/A light chain) [1]): essentially same behavior; effect of adding DTT and ZnCl2 to the 17-mer substrate reactions (LcA (BoNT/A light chain) [1]): results identical to those without them; concentration for optimal LcA activity (LcA (BoNT/A light chain) [2]): 0.1 mM; effect of ZnCl2 on LcA activity, SNAP25 substrate (LcA (BoNT/A light chain) [2]; pH 7.4): slight stimulation of the activity; also recorded: activity remained above the control 100%; effect on kinetic constants or specific activity of LcA with the 17-mer substrate (LcA (BoNT/A light chain) [3]): no effect
